Common to all, as to format: cell-based
Test [1] concerns PI3Kα wide type cell line SK-BR-3. As to the kind of experiment: Cell Proliferation IC50 Assay (CellTiter-Glo), SK-BR-3. The note with it: SK-BR-3 (PI3Kα wild type), 72 hours, CellTiter-Glo, read-out: IC50 (μM) SK-BR-3. In short, it runs like this: (§1)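 Cells were seeded and left overnight, then exposed to serially diluted compound (200-fold final dilution) for 72 h at 37 °C, 5% CO2. Viability was read by CellTiter-Glo luminescence. Percent inhibition and IC50 were calculated from the signal.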
For orientation: Cellular ATP, detected with luciferase, serves as a proxy for viable cell number.

Test [2] has as its system PI3Kα H1047R mutation cell line MDA-MB-453. As to the kind of experiment: Cell Proliferation IC50 Assay (CellTiter-Glo), MDA-MB-453. The following applies: read-out: IC50 (μM) MDA-MB-453. In short, it runs like this: as §1
The subject of test [3] is PI3Kα H1047R mutation cell line T-47D. Kind of test: Cell Proliferation IC50 Assay (CellTiter-Glo), T-47D. The note with it: T47D (H1047R), 72 hours, CellTiter-Glo, read-out: IC50 (μM) T47D. The procedure, abridged: as §1
Where [4] appears, read: Homo sapiens, MDA-MB-453 (H1047R), 72 hours, CellTiter-Glo.
The mark [5] stands for this setting: MDA-MB-453 (H1047R), 72 hours, CellTiter-Glo.

The structures appear in SMILES notation. Like-named read-outs stand apart in the source and are kept apart here.

One may read the IC50 as the midpoint of a concentration-inhibition curve.

As for `Cc1cc(C(C)Nc2ccccc2C(=O)O)c2oc(-c3cnn(CC(C)(C)O)c3)cc(=O)c2c1` (stereo not drawn) [Example 11, 2-((1-(2-(1-(2-hydroxy-2-methylpropyl)-1H-pyrazol-4-yl)-6-methyl-4-oxo-4H-chromen-8-yl)ethyl)amino)benzoic acid], the IC50 in test [1] (Homo sapiens) is greater than 10 µM; in test [2] (setting [4]), 2.49 µM; in test [3] (Homo sapiens, T47D, 72 h) it was 1.98 µM.
For `CC(=O)N1CCC(c2cc(=O)c3cc(C)cc(C(C)Nc4ccccc4C(=O)O)c3o2)CC1` (stereo not drawn) [Example 28, 2-((1-(2-(1-acetylpiperidin-4-yl)-6-methyl-4-oxo-4H-chromen-8-yl)ethyl)amino)benzoic acid] the same measures were greater than 10 µM, 3.61 µM and 1.77 µM.
In the case of `Cc1cc([C@@H](C)Nc2ccccc2C(=O)O)c2oc(-c3ccc4nn(C)cc4c3)c(C)c(=O)c2c1` [Example 49A, (R)-2-((1-(3,6-dimethyl-2-(2-methyl-211-indazol-5-yl)-4-oxo-4H-chromen-8-yl)ethyl)amino)benzoic acid], the values for the IC50 in test [1], in test [2] (setting [5]) and in test [3] were greater than 10 µM, 0.09 µM and 0.07 µM, respectively.
`Cc1cc(C(C)Nc2ccccc2S(N)(=O)=O)c2oc(-c3ccc4nn(C)cc4c3)c(C)c(=O)c2c1` (stereo not drawn) [Example 131, 2-((1-(3,6-dimethyl-2-(2-methyl-2H-indazol-5-yl)-4-oxo-4H-chromen-8-yl)ethyl)amino)benzenesulfonamide]: the IC50 was greater than 10 µM in test [1] (Homo sapiens); 0.059 µM in test [2] (Homo sapiens, MDA-MB-453, 72 h); 0.055 µM in test [3] (Homo sapiens).
For the compound `Cc1cc(C(C)Nc2ccccc2C(=O)O)c2oc(-c3ccc4c(c3)OCO4)cc(=O)c2c1` (stereo not drawn) [Example 4, 2-((1-(2-(benzo[d][1,3]dioxol-5-yl)-6-methyl-4-oxo-4H-chromen-8-yl)ethyl)amino)benzoic acid], the IC50 was greater than 10 µM in test [1] (Homo sapiens); 0.75 µM in test [2] (setting [4]); 0.56 µM in test [3] (Homo sapiens, T47D, 72 h).
For `Cc1cc([C@@H](C)Nc2ccccc2C(=O)O)c2oc(-c3ccc4c(c3)CN(C)C4=O)c(C)c(=O)c2c1` (single isomer, unassigned) [Example 20B] the same measures were greater than 10 µM, 0.07 µM and 0.048 µM.
Take `Cc1cc(C(C)Nc2ccccc2C(=O)O)c2oc(C3=CCN(C(=O)OC(C)(C)C)CC3)cc(=O)c2c1` (stereo not drawn) [Example 14, 2-((1-(2-(1-(tert-butoxycarbonyl)-1,2,3,6-tetrahydropyridin-4-yl)-6-methyl-4-oxo-4H-chromen-8-yl)ethyl)amino)benzoic acid]: the IC50 was greater than 10 µM in test [1] (Homo sapiens); 1.27 µM in test [2] (setting [4]); 1 µM in test [3] (Homo sapiens, T47D, 72 h).
For `Cc1cc(C(C)Nc2ccccc2C(=O)O)c2oc(C3CCN(C(=O)C(F)(F)F)CC3)cc(=O)c2c1` (stereo not drawn) [Example 29, 2-((1-(6-methyl-4-oxo-2-(1-(2,2,2-trifluoroacetyl)piperidin-4-yl)-4H-chromen-8-yl)ethyl)amino)benzoic acid] the same measures were greater than 10 µM, greater than 10 µM and 4.13 µM.
For `Cc1cc(C(C)Nc2ccccc2C(=O)O)c2oc(-c3ccn(C)c(=O)c3)cc(=O)c2c1` (stereo not drawn) [Example 34, 2-((1-(6-methyl-2-(1-methyl-2-oxo-1,2-dihydropyridin-4-yl)-4-oxo-4H-chromen-8-yl)ethyl)amino)benzoic acid] the same measures were greater than 10 µM, 7.82 µM and 4.63 µM.
The like results for `CC(=O)N1CCN(c2ccc(-c3oc4c([C@@H](C)Nc5ccccc5C(=O)O)cc(C)cc4c(=O)c3C)cc2F)CC1` [Example 154, (R)-2-((1-(2-(4-(4-acetylpiperazin-1-yl)-3-fluorophenyl)-3,6-dimethyl-4-oxo-41H-chromen-8-yl)ethyl)amino)benzoic acid] were, in that order, greater than 10 µM, 0.086 µM and 0.074 µM.
With `CC(=O)N1CCN(c2ccc(-c3oc4c([C@H](C)Nc5ccccc5C(=O)O)cc(C)cc4c(=O)c3C)cc2)CC1` (single isomer, unassigned) [Example 123B], the IC50 in test [1] (Homo sapiens) was greater than 10 µM; in test [2] (setting [4]), greater than 10 µM; in test [3] (Homo sapiens, T47D, 72 h), greater than 10 µM.
Consider `Cc1cc(C(C)Nc2ccccc2C(=O)O)c2oc(-c3ccc4nn(C)cc4c3)cc(=O)c2c1` (stereo not drawn) [Example 38], for which the IC50 in test [1] (Homo sapiens) was greater than 10 µM; in test [2] (setting [4]), 0.15 µM; in test [3] (Homo sapiens, T47D, 72 h) it was 0.08 µM.
For `Cc1cc(C(C)Nc2ccccc2C(=O)O)c2oc(-c3cc(C)c4nn(C)cc4c3)cc(=O)c2c1` (stereo not drawn) [Example 109, 2-((1-(2-(2,7-dimethyl-21-indazol-5-yl)-6-methyl-4-oxo-4H-chromen-8-yl)ethyl)amino)benzoic acid] the same measures were greater than 10 µM, 0.16 µM and 0.22 µM.
For `Cc1cc(C(C)Nc2ccccc2C(=O)O)c2oc(-c3ccc4c(cnn4C)c3)cc(=O)c2c1` (stereo not drawn) [Example 37, 2-((1-(6-methyl-2-(1-methyl-1H-indazol-5-yl)-4-oxo-4H-chromen-8-yl)ethyl)amino)benzoic acid] the same measures were greater than 10 µM, 0.8 µM and 0.42 µM.
For `Cc1ccc(-c2cc(=O)c3cc(C)cc(C(C)Nc4ccccc4C(=O)O)c3o2)cc1` (stereo not drawn) [Example 2, 2-((1-(6-methyl-4-oxo-2-(p-tolyl)-4H-chromen-8-yl)ethyl)amino)benzoic acid], the IC50 in test [1] (Homo sapiens) is greater than 10 µM; in test [2] (setting [4]), 0.39 µM; in test [3] (Homo sapiens, T47D, 72 h), 0.16 µM.
Consider `Cc1cc([C@H](C)Nc2ccccc2C(=O)O)c2oc(-c3ccc4nn(C)cc4c3)cc(=O)c2c1` [Example 38A, (S)-2-((1-(6-methyl-2-(2-menthyl-2H-indazol-5-yl)-4-oxo-411-chromen-8-yl)ethyl)amino)benzoic acid], for which the IC50 in test [1], in test [2] (setting [5]) and in test [3] was greater than 10 µM each time.
In the case of `Cc1cc(C(C)Nc2ccccc2C(=O)O)c2oc(-c3cnoc3)cc(=O)c2c1` (stereo not drawn) [Example 39, 2-((1-(2-(isoxazol-4-yl)-6-methyl-4-oxo-4H-chromen-8-yl)ethyl)amino)benzoic acid], the IC50 in test [1] (Homo sapiens) was greater than 10 µM; in test [2] (setting [4]), 2.49 µM; in test [3] (Homo sapiens, T47D, 72 h), 1.98 µM.
With `Cc1cc(C(C)Nc2ccccc2C(=O)O)c2oc(-c3cccs3)cc(=O)c2c1` (stereo not drawn) [Example 26, 2-((1-(6-methyl-4-oxo-2-(thiophen-2-yl)-4H-chromen-8-yl)ethyl)amino)benzoic acid], the IC50 in test [1] (Homo sapiens) is greater than 10 µM; in test [2] (setting [4]) it was 0.83 µM; in test [3] (Homo sapiens, T47D, 72 h), 0.66 µM.
For `Cc1cc(C(C)Nc2ccc(Cl)nc2C(=O)O)c2oc(-c3ccc4c(c3)CN(C)C4=O)c(C)c(=O)c2c1` (stereo not drawn) [Example 22, 6-chloro-3-((1-(3,6-dimethyl-2-(2-methyl-1-oxoisoindolin-5-yl)-4-oxo-4H-chromen-8-yl)ethyl)amino)picolinic acid] the same measures were 5.07 µM, 0.63 µM and 0.72 µM.
On to `Cc1cc(C(C)Nc2ccccc2C(=O)O)c2oc(-c3cnn(C)c3)cc(=O)c2c1` (stereo not drawn) [Example 10, 2-((1-(6-methyl-2-(1-methyl-1H-pyrazol-4-yl)-4-oxo-4H-chromen-8-yl)ethyl)amino)benzoic acid], for which the IC50 in test [1] (Homo sapiens) was greater than 10 µM; in test [2] (setting [4]), 2.44 µM; in test [3] (Homo sapiens, T47D, 72 h), 0.86 µM.
The like results for `Cc1cc([C@@H](C)Nc2ccccc2C(=O)O)c2oc(-c3ccc(Cc4cnn(C)c4)cc3)c(C)c(=O)c2c1` [Example 151, 2-[[(1R)-1-[3,6-dimethyl-2-[4-[(1-methylpyrazol-4-yl)methyl]phenyl]-4-oxo-chromen-8-yl]ethyl]amino]benzoic acid] were, in that order, greater than 10 µM, 0.089 µM and 0.058 µM.
For `Cc1cc(C(C)Nc2ccccc2C(=O)O)c2oc(C3CCN(C(=O)C4CC4)CC3)cc(=O)c2c1` (stereo not drawn) [Example 30, 2-((1-(2-(1-(cyclopropanecarbonyl)piperidin-4-yl)-6-methyl-4-oxo-4H-chromen-8-yl)ethyl)amino)benzoic acid] the same measures were greater than 10 µM, 4 µM and 1.87 µM.
The like results for `Cc1cc(C(C)Nc2ccccc2C(=O)O)c2oc(C3CCN(c4ccccc4)CC3)cc(=O)c2c1` (stereo not drawn) [Example 18, 2-((1-(6-methyl-4-oxo-2-(1-phenylpiperidin-4-yl)-4H-chromen-8-yl)ethyl)amino)benzoic acid] were, in that order, greater than 10 µM, 0.77 µM and 0.31 µM.
On to `Cc1cc(C(C)Nc2ccccc2C(=O)O)c2oc(-c3cc4ccccc4[nH]3)cc(=O)c2c1` (stereo not drawn) [Example 25, 2-((1-(2-(1H-indol-2-yl)-6-methyl-4-oxo-4H-chromen-8-yl)ethyl)amino)benzoic acid], for which the IC50 in test [1] (Homo sapiens) was greater than 10 µM; in test [2] (setting [4]) it was 0.32 µM; in test [3] (Homo sapiens, T47D, 72 h), 0.27 µM.
As to `Cc1cc(C(C)Nc2ccccc2C(=O)O)c2oc(-c3ccc(N4CCOCC4)cc3)cc(=O)c2c1` (stereo not drawn) [Example 42, 2-((1-(6-methyl-2-(4-morpholinophenyl)-4-oxo-4H-chromen-8-yl)ethyl)amino)benzoic acid], the IC50 in test [1] (Homo sapiens) is greater than 10 µM; in test [2] (setting [4]) it was 0.2 µM; in test [3] (Homo sapiens, T47D, 72 h) it was 0.21 µM.

For the origin of these results see patent US20250136568A1, “FUSED HETEROCYCLIC COMPOUNDS AS PI3KALPHA INHIBITORS” (Nanjing Zenshine Pharmaceuticals Co., Ltd., priority 2021, published 2025).
